Assay results reported in the NIST ThermoML archive (doi:10.1016/j.jct.2015.08.014).
± gives the expanded uncertainty stated by the source.

Assay: xn = mol fraction of the nth substance listed
Conditions: 100 kPa, Liquid; for electrical conductivity: Alternating current cell with electrodes; for mass density: Vibrating tube method; for viscosity: Capillary tube (Ostwald / Ubbelohde) method

CCCC[N+]1(C)CCCC1.N#CN=C=[N-] [1-butyl-1-methylpyrrolidinium dicyanamide] + O=C1CCCO1
Conditions | electrical conductivity [S/m]
273.15 K, Frequency=0.00892857 MHz, x1 = 0.9013 | 0.563 ± 0.006
273.15 K, Frequency=0.00892857 MHz, x1 = 1 | 0.523 ± 0.005
273.15 K, Frequency=0.00961538 MHz, x1 = 0.0463 | 0.978 ± 0.016
273.15 K, Frequency=0.00961538 MHz, x1 = 0.0987 | 1.43 ± 0.017
273.15 K, Frequency=0.00961538 MHz, x1 = 0.1449 | 1.57 ± 0.016
273.15 K, Frequency=0.00961538 MHz, x1 = 0.1859 | 1.635 ± 0.016
273.15 K, Frequency=0.00961538 MHz, x1 = 0.2493 | 1.517 ± 0.015
273.15 K, Frequency=0.00961538 MHz, x1 = 0.3029 | 1.42 ± 0.015
273.15 K, Frequency=0.00961538 MHz, x1 = 0.3845 | 1.25 ± 0.013
273.15 K, Frequency=0.00961538 MHz, x1 = 0.4985 | 1.03 ± 0.011
273.15 K, Frequency=0.00961538 MHz, x1 = 0.6954 | 0.742 ± 0.008
273.15 K, Frequency=0.00961538 MHz, x1 = 0.9013 | 0.563 ± 0.006
273.15 K, Frequency=0.00961538 MHz, x1 = 1 | 0.523 ± 0.005
273.15 K, Frequency=0.01 MHz, x1 = 0.0463 | 0.978 ± 0.016
273.15 K, Frequency=0.01 MHz, x1 = 0.0987 | 1.43 ± 0.017
273.15 K, Frequency=0.01 MHz, x1 = 0.1449 | 1.57 ± 0.016
273.15 K, Frequency=0.01 MHz, x1 = 0.1859 | 1.635 ± 0.016
273.15 K, Frequency=0.01 MHz, x1 = 0.2493 | 1.517 ± 0.015
273.15 K, Frequency=0.01 MHz, x1 = 0.3029 | 1.42 ± 0.015
273.15 K, Frequency=0.01 MHz, x1 = 0.3845 | 1.25 ± 0.013
273.15 K, Frequency=0.01 MHz, x1 = 0.4985 | 1.03 ± 0.011
273.15 K, Frequency=0.01 MHz, x1 = 0.6954 | 0.742 ± 0.008
273.15 K, Frequency=0.01 MHz, x1 = 0.9013 | 0.563 ± 0.006
273.15 K, Frequency=0.01 MHz, x1 = 1 | 0.523 ± 0.005
283.15 K, Frequency=0.0005 MHz, x1 = 0.0463 | 1.16 ± 0.02
283.15 K, Frequency=0.0005 MHz, x1 = 0.0987 | 1.73 ± 0.021
283.15 K, Frequency=0.0005 MHz, x1 = 0.1449 | 1.92 ± 0.02
283.15 K, Frequency=0.0005 MHz, x1 = 0.1859 | 2.018 ± 0.02
283.15 K, Frequency=0.0005 MHz, x1 = 0.2493 | 1.921 ± 0.019
283.15 K, Frequency=0.0005 MHz, x1 = 0.3029 | 1.84 ± 0.019
283.15 K, Frequency=0.0005 MHz, x1 = 0.3845 | 1.65 ± 0.017
283.15 K, Frequency=0.0005 MHz, x1 = 0.4985 | 1.407 ± 0.014
283.15 K, Frequency=0.0005 MHz, x1 = 0.6954 | 1.07 ± 0.01
283.15 K, Frequency=0.0005 MHz, x1 = 0.9013 | 0.849 ± 0.009
283.15 K, Frequency=0.0005 MHz, x1 = 1 | 0.786 ± 0.008
283.15 K, Frequency=0.001 MHz, x1 = 0.0463 | 1.16 ± 0.02
283.15 K, Frequency=0.001 MHz, x1 = 0.0987 | 1.73 ± 0.021
283.15 K, Frequency=0.001 MHz, x1 = 0.1449 | 1.92 ± 0.02
283.15 K, Frequency=0.001 MHz, x1 = 0.1859 | 2.027 ± 0.02
283.15 K, Frequency=0.001 MHz, x1 = 0.2493 | 1.923 ± 0.019
283.15 K, Frequency=0.001 MHz, x1 = 0.3029 | 1.84 ± 0.019
283.15 K, Frequency=0.001 MHz, x1 = 0.3845 | 1.65 ± 0.017
283.15 K, Frequency=0.001 MHz, x1 = 0.4985 | 1.407 ± 0.014
283.15 K, Frequency=0.001 MHz, x1 = 0.6954 | 1.07 ± 0.01
283.15 K, Frequency=0.001 MHz, x1 = 0.9013 | 0.849 ± 0.009
283.15 K, Frequency=0.001 MHz, x1 = 1 | 0.786 ± 0.008
283.15 K, Frequency=0.0015 MHz, x1 = 0.0463 | 1.17 ± 0.02
283.15 K, Frequency=0.0015 MHz, x1 = 0.0987 | 1.73 ± 0.021
283.15 K, Frequency=0.0015 MHz, x1 = 0.1449 | 1.92 ± 0.02
283.15 K, Frequency=0.0015 MHz, x1 = 0.1859 | 2.027 ± 0.02
283.15 K, Frequency=0.0015 MHz, x1 = 0.2493 | 1.924 ± 0.019
283.15 K, Frequency=0.0015 MHz, x1 = 0.3029 | 1.84 ± 0.019
283.15 K, Frequency=0.0015 MHz, x1 = 0.3845 | 1.66 ± 0.017
283.15 K, Frequency=0.0015 MHz, x1 = 0.4985 | 1.407 ± 0.014
283.15 K, Frequency=0.0015 MHz, x1 = 0.6954 | 1.07 ± 0.01
283.15 K, Frequency=0.0015 MHz, x1 = 0.9013 | 0.849 ± 0.009
283.15 K, Frequency=0.0015 MHz, x1 = 1 | 0.786 ± 0.008
283.15 K, Frequency=0.002 MHz, x1 = 0.0463 | 1.17 ± 0.02
283.15 K, Frequency=0.002 MHz, x1 = 0.0987 | 1.73 ± 0.021
283.15 K, Frequency=0.002 MHz, x1 = 0.1449 | 1.92 ± 0.02
283.15 K, Frequency=0.002 MHz, x1 = 0.1859 | 2.027 ± 0.02
283.15 K, Frequency=0.002 MHz, x1 = 0.2493 | 1.925 ± 0.019
283.15 K, Frequency=0.002 MHz, x1 = 0.3029 | 1.84 ± 0.019
283.15 K, Frequency=0.002 MHz, x1 = 0.3845 | 1.66 ± 0.017
283.15 K, Frequency=0.002 MHz, x1 = 0.4985 | 1.407 ± 0.014
283.15 K, Frequency=0.002 MHz, x1 = 0.6954 | 1.07 ± 0.01
283.15 K, Frequency=0.002 MHz, x1 = 0.9013 | 0.849 ± 0.009
283.15 K, Frequency=0.002 MHz, x1 = 1 | 0.786 ± 0.008
283.15 K, Frequency=0.0025 MHz, x1 = 0.0463 | 1.17 ± 0.02
283.15 K, Frequency=0.0025 MHz, x1 = 0.0987 | 1.73 ± 0.021
283.15 K, Frequency=0.0025 MHz, x1 = 0.1449 | 1.93 ± 0.02
283.15 K, Frequency=0.0025 MHz, x1 = 0.1859 | 2.028 ± 0.02
283.15 K, Frequency=0.0025 MHz, x1 = 0.2493 | 1.925 ± 0.019
283.15 K, Frequency=0.0025 MHz, x1 = 0.3029 | 1.84 ± 0.019
283.15 K, Frequency=0.0025 MHz, x1 = 0.3845 | 1.66 ± 0.017
283.15 K, Frequency=0.0025 MHz, x1 = 0.4985 | 1.407 ± 0.014
283.15 K, Frequency=0.0025 MHz, x1 = 0.6954 | 1.07 ± 0.01
283.15 K, Frequency=0.0025 MHz, x1 = 0.9013 | 0.849 ± 0.009
283.15 K, Frequency=0.0025 MHz, x1 = 1 | 0.786 ± 0.008
283.15 K, Frequency=0.003 MHz, x1 = 0.0463 | 1.17 ± 0.02
283.15 K, Frequency=0.003 MHz, x1 = 0.0987 | 1.73 ± 0.021
283.15 K, Frequency=0.003 MHz, x1 = 0.1449 | 1.93 ± 0.02

Conditions | electrical conductivity, 283.15 K [S/m] | mass density, 273.15 K [kg/m3] | viscosity, 283.15 K [mPa·s]
x1 = 0.0463 | 1.17 ± 0.02 | – | –
x1 = 0.0987 | 1.73 ± 0.021 | 1124.75 ± 9 | 3.75 ± 0.08
x1 = 0.1449 | 1.93 ± 0.02 | – | –
x1 = 0.1859 | 2.028 ± 0.02 | 1107.12 ± 8.9 | 5.58 ± 0.13
x1 = 0.2493 | 1.926 ± 0.019 | – | –
x1 = 0.3029 | 1.84 ± 0.019 | 1087.92 ± 8.7 | 8.99 ± 0.2
x1 = 0.3845 | 1.66 ± 0.017 | – | –
x1 = 0.4985 | 1.407 ± 0.014 | 1063.96 ± 8.5 | 17.71 ± 0.39
x1 = 0.6954 | 1.07 ± 0.011 | 1046.52 ± 8.4 | 30.79 ± 0.69
x1 = 0.9013 | 0.849 ± 0.009 | 1032.97 ± 8.3 | 49.24 ± 1.1
x1 = 1 | 0.786 ± 0.008 | 1027.69 ± 8.3 | 59.6 ± 1.4
